How the values were obtained:
P. aeruginosa = experiment: Phase 2 study: P. aeruginosa density in sputum; format: in vivo, Pseudomonas aeruginosa; settings: MITT; for Reduction in P. aeruginosa density in sputum: median Day 1 to Day 28
Description: The following dosage regimens (as nebulizer loaded doses) were evaluated: 120 mg QD (daily); 240 mg QD (daily); and 240 mg BID (twice daily).
Patients were assessed on Day 1, 7, 14, and 28, and then up to 28 days after completion of study drug, namely, Days 42 and 56. The end of the study was defined as the last visit of the last patient.
Efficacy was evaluated by microbiologic assessment of sputum samples, time to need for anti-pseudomonal antimicrobials, the Cystic Fibrosis Questionaire-Revised (CFQ-R), and pulmonary function tests. […] Pair-wise comparisons between all the treatment arms were conducted as secondary analyses.

stable CF patients = experiment: Phase 1b study: pulmonary function tests (FEV1); format: in vivo, human
Description: All patients had had P. aeruginosa cultured from sputum within the previous 24 months and at the screening visit. Study drug was administered twice daily for up to 14 days at three doses by aerosol using a PART eFlow device. Respirable delivered doses (RDD) were approximately 40 mg, 80 mg, and 120 mg per treatment, corresponding to loaded doses of 78 mg, 175 mg, and 260 mg, respectively. Thus, the estimated total daily RDDs were 80 mg, 160 mg, and 240 mg. Study drugs were administered at 30 mg/ml (for 40 mg dose) or 50 mg/ml (for 80 mg and 120 mg doses).
In Table 3, relative change from baseline (CBG) was calculated as ‘Result’ FEV1 minus ‘Baseline’ FEV1 divided by ‘Baseline’ FEV1.

[1] = combined 240 mg QD and BID, Baseline to Day 7
[2] = combined 240 mg QD and BID, Baseline to Day 14
[3] = combined 240 mg QD and BID, Baseline to Day 28
[4] = combined 240 mg QD and BID, Day 1
[5] = combined 240 mg QD and BID, Day 7
[6] = combined 240 mg QD and BID, Day 14
[7] = combined 240 mg QD and BID, Day 28
[8] = 80 mg RDD BID, Day 1 predose baseline
[9] = 120 mg RDD BID, Day 1 predose baseline

C[C@H]1COc2c(N3CCN(C)CC3)c(F)cc3c(=O)c(C(=O)O)cn1c23 [Levofloxacin, levofloxacin]
P. aeruginosa density, median (P. aeruginosa; 120 mg QD, Day 14): 8.00 log10 CTU/g sputum
P. aeruginosa density, mean (P. aeruginosa; 120 mg QD, Day 28): 7.26 log10 CTU/g sputum
P. aeruginosa density, median (P. aeruginosa; 120 mg QD, Day 28): 7.78 log10 CTU/g sputum
Reduction in P. aeruginosa density in sputum (P. aeruginosa; 120 mg QD): approximately 58%
Change in P. aeruginosa density, mean (P. aeruginosa; 240 mg BID, Baseline to Day 7): −0.97 log10 CTU/g sputum
Change in P. aeruginosa density, median (P. aeruginosa; 240 mg BID, Baseline to Day 7): −0.76 log10 CTU/g sputum
Change in P. aeruginosa density, mean (P. aeruginosa; 240 mg BID, Baseline to Day 14): −0.81 log10 CTU/g sputum
Change in P. aeruginosa density, median (P. aeruginosa; 240 mg BID, Baseline to Day 14): −0.79 log10 CTU/g sputum
Change in P. aeruginosa density, mean (P. aeruginosa; 240 mg BID, Baseline to Day 28): −0.66 log10 CTU/g sputum
Change in P. aeruginosa density, median (P. aeruginosa; 240 mg BID, Baseline to Day 28): −0.56 log10 CTU/g sputum
P. aeruginosa density, mean (P. aeruginosa; 240 mg BID, Day 1): 7.17 log10 CTU/g sputum
P. aeruginosa density, median (P. aeruginosa; 240 mg BID, Day 1): 7.90 log10 CTU/g sputum
P. aeruginosa density, mean (P. aeruginosa; 240 mg BID, Day 7): 6.16 log10 CTU/g sputum
P. aeruginosa density, median (P. aeruginosa; 240 mg BID, Day 7): 6.53 log10 CTU/g sputum
P. aeruginosa density, mean (P. aeruginosa; 240 mg BID, Day 14): 6.32 log10 CTU/g sputum
P. aeruginosa density, median (P. aeruginosa; 240 mg BID, Day 14): 6.70 log10 CTU/g sputum
P. aeruginosa density, mean (P. aeruginosa; 240 mg BID, Day 28): 6.58 log10 CTU/g sputum
P. aeruginosa density, median (P. aeruginosa; 240 mg BID, Day 28): 6.48 log10 CTU/g sputum
Reduction in P. aeruginosa density in sputum (P. aeruginosa; 240 mg BID): approximately 96%
Change in P. aeruginosa density, mean (P. aeruginosa; 240 mg QD, Baseline to Day 7): −0.31 log10 CTU/g sputum
Change in P. aeruginosa density, median (P. aeruginosa; 240 mg QD, Baseline to Day 7): −0.18 log10 CTU/g sputum
Change in P. aeruginosa density, mean (P. aeruginosa; 240 mg QD, Baseline to Day 14): −0.44 log10 CTU/g sputum
Change in P. aeruginosa density, median (P. aeruginosa; 240 mg QD, Baseline to Day 14): −0.10 log10 CTU/g sputum
Change in P. aeruginosa density, mean (P. aeruginosa; 240 mg QD, Baseline to Day 28): −0.25 log10 CTU/g sputum
Change in P. aeruginosa density, median (P. aeruginosa; 240 mg QD, Baseline to Day 28): −0.39 log10 CTU/g sputum
P. aeruginosa density, mean (P. aeruginosa; 240 mg QD, Day 1): 7.08 log10 CTU/g sputum
P. aeruginosa density, median (P. aeruginosa; 240 mg QD, Day 1): 7.97 log10 CTU/g sputum
P. aeruginosa density, mean (P. aeruginosa; 240 mg QD, Day 7): 6.79 log10 CTU/g sputum
P. aeruginosa density, median (P. aeruginosa; 240 mg QD, Day 7): 6.95 log10 CTU/g sputum
P. aeruginosa density, mean (P. aeruginosa; 240 mg QD, Day 14): 6.63 log10 CTU/g sputum
P. aeruginosa density, median (P. aeruginosa; 240 mg QD, Day 14): 6.46 log10 CTU/g sputum
P. aeruginosa density, mean (P. aeruginosa; 240 mg QD, Day 28): 6.82 log10 CTU/g sputum
P. aeruginosa density, median (P. aeruginosa; 240 mg QD, Day 28): 7.38 log10 CTU/g sputum
Reduction in P. aeruginosa density in sputum (P. aeruginosa; 240 mg QD): approximately 74%
Largest difference in P. aeruginosa density, placebo vs levofloxacin (P. aeruginosa; Day 7): 1.44 log10 CFU/g sputum
Largest difference in P. aeruginosa density, placebo vs levofloxacin (P. aeruginosa; Day 14): 1.39 log10 CFU/g sputum
Largest difference in P. aeruginosa density, placebo vs levofloxacin (P. aeruginosa; Day 28): 1.78 log10 CFU/g sputum
Change in P. aeruginosa density, mean (P. aeruginosa; [1]): −0.65 log10 CTU/g sputum
Change in P. aeruginosa density, median (P. aeruginosa; [1]): −0.35 log10 CTU/g sputum
Change in P. aeruginosa density, mean (P. aeruginosa; [2]): −0.63 log10 CTU/g sputum
Change in P. aeruginosa density, median (P. aeruginosa; [2]): −0.40 log10 CTU/g sputum
Change in P. aeruginosa density, mean (P. aeruginosa; [3]): −0.46 log10 CTU/g sputum
Change in P. aeruginosa density, median (P. aeruginosa; [3]): −0.5 log10 CTU/g sputum
P. aeruginosa density, mean (P. aeruginosa; [4]): 7.12 log10 CTU/g sputum
P. aeruginosa density, median (P. aeruginosa; [4]): 7.91 log10 CTU/g sputum
P. aeruginosa density, mean (P. aeruginosa; [5]): 6.47 log10 CTU/g sputum
P. aeruginosa density, median (P. aeruginosa; [5]): 6.69 log10 CTU/g sputum
P. aeruginosa density, mean (P. aeruginosa; [6]): 6.48 log10 CTU/g sputum
P. aeruginosa density, median (P. aeruginosa; [6]): 6.61 log10 CTU/g sputum
P. aeruginosa density, mean (P. aeruginosa; [7]): 6.70 log10 CTU/g sputum
P. aeruginosa density, median (P. aeruginosa; [7]): 6.90 log10 CTU/g sputum
FEV1, median (stable CF patients; 40 mg RDD BID, Day 1 predose baseline): 2.30 L
FEV1, median (stable CF patients; 40 mg RDD BID, Day 2 predose): 2.32 L
FEV1, median (stable CF patients; 40 mg RDD BID, Day 7): 2.30 L
FEV1, median (stable CF patients; 40 mg RDD BID, Day 14 predose): 2.30 L
FEV1, median (stable CF patients; 40 mg RDD BID, Day 21/ET): 2.07 L
FEV1, mean (stable CF patients; [8]): 2.06 L
FEV1, median (stable CF patients; [8]): 1.95 L
FEV1, median (stable CF patients; 80 mg RDD BID, Day 2 predose): 2.00 L
FEV1, median (stable CF patients; 80 mg RDD BID, Day 7): 2.08 L
FEV1, median (stable CF patients; 80 mg RDD BID, Day 14 predose): 2.10 L
FEV1, mean (stable CF patients; 80 mg RDD BID, Day 21/ET): 2.03 L
FEV1, median (stable CF patients; 80 mg RDD BID, Day 21/ET): 2.04 L
FEV1, mean (stable CF patients; [9]): 2.56 L
FEV1, median (stable CF patients; [9]): 2.23 L
FEV1, mean (stable CF patients; 120 mg RDD BID, Day 2 predose): 2.73 L
FEV1, median (stable CF patients; 120 mg RDD BID, Day 2 predose): 2.38 L
FEV1, mean (stable CF patients; 120 mg RDD BID, Day 7): 3.07 L
FEV1, median (stable CF patients; 120 mg RDD BID, Day 7): 2.40 L
FEV1, mean (stable CF patients; 120 mg RDD BID, Day 14 predose): 3.12 L
FEV1, median (stable CF patients; 120 mg RDD BID, Day 14 predose): 2.57 L
FEV1, mean (stable CF patients; 120 mg RDD BID, Day 21/ET): 2.75 L
FEV1, median (stable CF patients; 120 mg RDD BID, Day 21/ET): 2.48 L
